Data published in the supplement of paper PMC11962398.

Key:
BI-2493 [1] = compound: T1, C[C@H]1CNCCN1c1nccc(-c2noc3c2CCC[C@@]32CCCc3sc(N)c(C#N)c32)n1 [BI-2493]; settings: 5 days
Protocol: (§1)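 PRISM pooled barcoded cancer cell line viability screen (Broad Institute) with BI-2493 at 8 doses in threefold dilutions from 0.00457 to 10 µmol/L, 5-day treatment; curves fitted per cell line. IC50 is undefined (placeholder) for resistant lines. AUC is capped at 1, and sensitivity is reported as 1 − AUC.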

BI-2493 [2] = compound: T1, BI-2493; test: 1 - AUC of viability dose-response curve (sensitivity) (fraction); higher = more sensitive; settings: 5 days
Protocol: as §1

| Test System | IC50 of cell viability (BI-2493 [1]) | 1 - AUC of viability dose-response curve (BI-2493 [2]) |
| --- | --- | --- |
| ECGI10_OESOPHAGUS | 4.75 µM | 0.15 |
| EFM19_BREAST | 8.2 µM | 0.0426 |
| EFM192A_BREAST | > 10 µM | 0.0526 |
| EFO21_OVARY | > 10 µM | 0.106 |
| EFO27_OVARY | 9.28 µM | 0.167 |
| EKVX_LUNG | 7.44 µM | 0.146 |
| EM2_HAEMATOPOIETIC_AND_LYMPHOID_TISSUE | 4.85 µM | 0.207 |
| EMTOKA_ENDOMETRIUM | 4.31 µM | 0.0999 |
| EN_ENDOMETRIUM | 9.54 µM | 0.0294 |
| EOL1_HAEMATOPOIETIC_AND_LYMPHOID_TISSUE | 0.77 µM | 0.355 |
| ES2_OVARY | 9.51 µM | 0.00984 |
| ESS1_ENDOMETRIUM | 1.43 µM | 0.362 |
| EW8_BONE | 4.5 µM | 0.0935 |
| EWS502_BONE | 3.56 µM | 0.177 |
| FADU_UPPER_AERODIGESTIVE_TRACT | 6.09 µM | 0.102 |
| FLO1_OESOPHAGUS | 4.86 µM | 0.0758 |
| FTC133_THYROID | > 10 µM | 0.0578 |
| G292CLONEA141B1_BONE | > 10 µM | 0.0653 |
| G361_SKIN | 4.01 µM | 0.117 |
| G401_SOFT_TISSUE | > 10 µM | 0.17 |
| G402_SOFT_TISSUE | 4.25 µM | 0.117 |
| G415_BILIARY_TRACT | 2.22 µM | 0.245 |
| GAMG_CENTRAL_NERVOUS_SYSTEM | 8.24 µM | 0.0333 |
| GB1_CENTRAL_NERVOUS_SYSTEM | > 10 µM | 0.00342 |
| GB2_BILIARY_TRACT | 2.24 µM | 0.256 |
| GCIY_STOMACH | > 10 µM | 0.00163 |
| GCT27_TESTIS | > 10 µM | 0.128 |
| GCT_SOFT_TISSUE | 6.05 µM | 0.0856 |
| GI1_CENTRAL_NERVOUS_SYSTEM | 3.59 µM | 0.132 |
| GOS3_CENTRAL_NERVOUS_SYSTEM | 9.35 µM | 0.0406 |
